{"source": "patent US20050131739A1", "about": "“Methods for monitoring severity of panic attacks and other rapidly evolving medical events in real time” (Alexza Molecular Delivery Corporation, priority 2003, published 2005)", "system": "acute panic attacks in patients with panic disorder", "assay": "Double-blind, randomized, placebo-controlled clinical trial of alprazolam delivered by inhalation; panic recorded with patient experience diary (PED)", "assay_type": "in vivo", "conditions": "for mean peak panic severity / mean panic severity at 12 minutes: 11-point visual analogue scale; for mean panic severity at 12 minutes: 12 minutes following use of the inhaler", "method": "To determine the efficacy of alprazolam delivered by inhalation in the treatment of acute panic attacks, a clinical trial is conducted. The objectives of the trial are to determine the effectiveness of alprazolam delivered by inhalation at the time of onset of panic symptoms in decreasing the duration and/or severity of acute panic attacks in patients with panic disorder. The duration and severity of acute panic symptoms are measured using a patient experience diary (PED) for the real time assessment of severity of panic attacks. Patients are recruited for the study by posting in various public locations and medical clinics advertisements seeking patients who experience 2 or more panic attacks per week for participation in the study. To enroll patients who have not previously been treated for panic, the advertisement may include a description of panic symptoms, so that patients who experience panic attacks without being aware that such attacks constitute a medical condition are encouraged to volunteer.\nThe overall study design is a double-blind, randomized, placebo-controlled clinical trial. Patients 18-65 years of age reporting at least 2 panic attacks per week, without history of psychotic disorders, substance abuse disorders, dementia, or severe or life-threatening medical disorders such as serious heart or lung disease, eligible for the study. Patients not currently on medication for panic disorder, as well as patients currently using a stable dose of selective serotonin reuptake inhibitor (SSRI) the treatment of panic disorder are eligible for the study, as are patients currently taking alprazolam or other benzodiazepines on a PRN basis, if the patients agree not to use such drugs during the study period. Patients using chronic benzodiazepines or other sedative hypnotics for the treatment of panic disorder are excluded from the study, as are patients using psychotropic medications other than SSRIs or unstable SSRI doses. Eligible patients are enrolled in the study after being explained the risks and benefits of the study and signing informed consent.\nThe patients are then trained in use of the PED described in Examples 1 and 2 above, set to an every 3 minute prompting interval. After being trained in use of the PED, the patients then take the PED home for 3 weeks of use. During these 3 weeks, patients must record at least one panic attack per week in the diary of duration greater than 12 minutes (time from initial diary entry until the patient answers “not at all” to the item regarding the severity of their panic symptoms right now) to proceed to the randomization point in the study. Patients recording less than one panic attack per week, only very brief (less than 12 minute duration panic attacks), or having difficulty using the diary are dropped from the study. At this point, continuing patients are randomized to receive placebo inhaler, inhaler dispensing alprazolam 0.25 mg as an aerosol having an approximately 2 μm mass median aerodynamic diameter (MMAD), or inhaler dispensing alprazolam 0.5 mg as an aerosol having an approximately 2 μm MMAD. Patients are given four identical inhalers each, and instructed to use the inhalers at the time of their next 4 panic attacks (only 1 inhaler per attack). In particular, the patients are instructed to start the PED at the initiation of panic symptoms before taking their medication, to take the medication when prompted by the PED, and then to record the course of the panic attack after taking the medication as prompted by the PED.\nData from the 4 panic attacks during which the inhaler is used as panic treatment are recorded in the PED and transmitted to a central data storage site. The data is analyzed after each patient records 4 panic attacks, or after 8 weeks passes from the time the patient received the inhalers. […]", "data": [{"smiles": "Cc1nnc2n1-c1ccc(Cl)cc1C(c1ccccc1)=NC2", "note": "[alprazolam, 8-chloro-1-methyl-6-phenyl-4H-[1,2,4]triazolo[4,3-α] [1,4]benzodiazepine]", "values": [{"measurement": "mean peak panic severity", "setting": "alprazolam 0.25 mg by inhaler", "value": 6}, {"measurement": "mean panic severity at 12 minutes", "setting": "alprazolam 0.25 mg by inhaler", "value": "3 out of 10"}, {"measurement": "mean peak panic severity", "setting": "alprazolam 0.5 mg by inhaler", "value": 6}, {"measurement": "mean panic severity at 12 minutes", "setting": "alprazolam 0.5 mg by inhaler", "value": "1.5 out of 10"}, {"measurement": "mean duration of panic", "setting": "patients receiving alprazolam 0.25 mg by inhaler (aerosol, approx. 2 μm MMAD) at onset of panic attack", "value": 20, "unit": "min"}, {"measurement": "mean duration of panic", "setting": "patients receiving alprazolam 0.5 mg by inhaler (aerosol, approx. 2 μm MMAD) at onset of panic attack", "value": 10, "unit": "min"}]}]}
